Results on eleven molecules are retold here after patent US20260373248A1, “DEGRADABLE PEPTOIDS” (Medici Therapeutics, Inc., priority 2023, published 2026).

Data set [1] in a line: Delivery vehicle size and polydispersity by dynamic light scattering. Type of data set: physicochemical. The conditions noted are these: DLS in PBS; peptoid:DSPC:Cholesterol:DMG-PEG2000 weight ratio 20:1.79:7.16:1.84, mRNA. As to the method: Delivery vehicles were formulated by rapid microfluidic mixing using a high throughput microfluidic system. Briefly, ethanol solutions containing peptoid, DSPC, Cholesterol, DMG-PEG2000 at weight ratio of 20:1.79:7.16:1.84, were mixed with 10 mM sodium citrate buffer (pH 5.0) containing synthesized mRNA at a ratio of 1:3 by volume. Peptoid based LNPs were subsequently dialyzed against 1-2 liters of tris-sucrose buffer (TS7, pH 7.4) overnight at 4 °C. Delivery vehicle size and polydispersity (PDI) was measured by dynamic light scattering in PBS.
(§1) Degradable peptoids described herein were formulated as various formulations described in Table 3 according to the procedure described in Example 2. Particle size was characterized as described in Example 2, and […] encapsulation of mRNA was determined as described in Example 3.

In data set [2] the test system is mRNA. The experiment in a line: mRNA encapsulation (modified Quant-iT RiboGreen assay). Type of data set: physicochemical. To be noted: RiboGreen, without vs with Triton X-100. The protocol: The mRNA concentration and the percentage of encapsulated mRNA were determined using fluorescent-based Quant-iT RiboGreen RNA Reagent Kit (Life Technologies, Waltham, MA) as described previously. To determine the mRNA concentration, PNPs was incubated with […] for 10 min to release entrapped mRNA, followed by addition of RiboGreen RNA reagent. The fluorescence intensity of mRNA-RiboGreen reagent complex (excitation at 485 nm and emission at 530 nm) was detected using a microplate reader. The ratio of fluorescence without and with Triton X-100 were used to calculate the percentage of encapsulated mRNA.
as §1

In data set [3] the test system is luciferase. The experiment in a line: Luciferase expression after local (intramuscular or subcutaneous) administration of mRNA. In kind it is in vivo. To be noted: mRNA 0.01 mpk, 6 hours; for IM Flux: intramuscular; for SC Flux: subcutaneous. The protocol: (§2) All animal studies were conducted under accreditation by the California State Department of Public Health and under supervision of IACUC and Veterinarian Supervision. For imaging studies, female Balb/c mice (6-8 weeks old) were obtained and acclimatized for a minimum of 3 days prior to experiments. The animals were maintained on a 12 hour light cycle in a temperature and humidity controlled room. A daily health check was performed as well as food and water check. For dosing, mice were injected with 2.5 ug fLuc mRNA-containing Nutshells intravenously in 100 μL total injection value. At 6 hours post-injection, mice were anesthetized with isoflurane, injected IP with 30 mg/mL D-luciferin at a dose of 10 μL per gram bodyweight intraperitoneally. Imaging was done 10 minutes post D-luciferin injection using an IVIS Spectrum Imaging System (Caliper Life Sciences). Immediately after in vivo imaging, mice were terminally bled by cardiac puncture and euthanized. The organs of interest were harvested, placed in black 24-well plates, and imaged. Living Image software (Perkin Elmer) was used to quantify the total photon flux in regions of interest.
Aminolipidated peptoids were also effective for local administration of mRNA through subcutaneous (S.C.) or intramuscular (I.M.) routes of administration. For these examples, mRNA was administered at a dose of 0.1 mpk for intratomoral, or 0.01 mpk for subcutaneous and intramuscular administration, and the resulting bioluminescence quantified after 6 hours according to a similar procedure as described in Example 4.

In data set [4] the test system is firefly luciferase. In words: In vivo firefly luciferase expression after intravenous injection of fLuc mRNA delivery vehicles (IVIS imaging). Further details: species or system female Balb/c mice. The conditions noted are these: mice, 2.5 ug fLuc mRNA intravenously, 6 hours post-injection. As to the method:
as §2
Luciferase expression in these formulations was also determined as described in Example 4.

Molecules are shown by their SMILES. Starred links: 1 amine or outer side, 2 acyl side, 3 side chain; linkers in the order of their positions; H or OH if unused. Non-standard residues stand in square brackets, D forms with d. Residues, ends and D or L forms follow the SMILES beside them. *: point of attachment. Gly(N-(3-decanoyloxypropyl)) = CCCCCCCCCC(=O)OCCCNCC(=O)O; N(2-decanoyloxyethyl)Gly = CCCCCCCCCC(=O)OCCNCC(=O)O; Gly(N-(CH2)3O-octanoyl) = CCCCCCCC(=O)OCCCNCC(=O)O; N(3-imidazol-1-ylpropyl)Gly = O=C(O)CNCCCn1ccnc1; Gly(N-3-morpholinopropyl) = O=C(O)CNCCCN1CCOCC1; X5 = CCCCC(CC)C(=O)OCCCCCCN(CC(=O)[*:2])[*:1]; X4 = CCCCCCCCCCCC(=O)OCCN(CC(=O)[*:2])[*:1]; N(2-ethylhexyl)Gly = CCCCC(CC)CNCC(=O)O; X6 = CCCCCCCC(=O)OCCN(CC(=O)[*:2])[*:1]; X1 = CCCCC(CC)CSSCCN(CC(=O)[*:2])[*:1]; X7 = CCCCCCCCCCSSCCN(CC(=O)[*:2])[*:1]; Gly(N-dodecyl) = CCCCCCCCCCCCNCC(=O)O; N(CH(CH2OH)2)Gly = O=C(O)CNC(CO)CO; N(octyl)Gly = CCCCCCCCNCC(=O)O; NDecylGly = CCCCCCCCCCNCC(=O)O; For = O=C*

On to `CCCCCCCCCC(=O)OCCCN(CC(=O)N(CC(N)=O)CC(CC)CCCC)C(=O)CN(CCCCCCCC)C(=O)CN(CC(CC)CCCC)C(=O)CN(CCCOC(=O)CCCCCCCCC)C(=O)CN(CCCCCCCC)C(=O)CNCCCn1ccnc1` (stereo not shown) [Compound 111] (H-[N(3-imidazol-1-ylpropyl)Gly][N(octyl)Gly][Gly(N-(3-decanoyloxypropyl))][N(2-ethylhexyl)Gly][N(octyl)Gly][Gly(N-(3-decanoyloxypropyl))][N(2-ethylhexyl)Gly]-NH2), for which, in data set [1], the PDI was 0.148 and the “Particle Size” value came to 105.5 nm. Also, in data set [2], the “mean percent encapsulation of RNA” value came out at 72.3%. Besides, in data set [3], the “IM Flux” value is 4.89E+07 p/s and the “SC Flux” value is 6.25E+07 p/s. For the same molecule, the “Total Flux” value in data set [4] is 3.16E+08 p/s.
With `CCCCCCCC(=O)OCCN(CC(=O)N(CC(=O)N(CC(=O)N(CCOC(=O)CCCCCCC)CC(=O)N(CC(N)=O)CC(CC)CCCC)CC(CC)CCCC)CC(CC)CCCC)C(=O)CN(CC(CC)CCCC)C(=O)CNC(CO)CO` (stereo not shown) [Compound 1] (H-[N(CH(CH2OH)2)Gly][N(2-ethylhexyl)Gly][X6][N(2-ethylhexyl)Gly][N(2-ethylhexyl)Gly][X6][N(2-ethylhexyl)Gly]-NH2), in data set [1], the PDI is given as 0.094 and the “Particle Size” value turned out to be 79.7 nm. The “mean percent encapsulation of RNA” value in data set [2] amounted to 93.0%. In addition, in data set [4], the “Total Flux” value is 7.71E+08 p/s.
As to `CCCCCCCCN(CC(=O)N(CCCOC(=O)CCCCCCC)CC(=O)N(CCSSCC(CC)CCCC)CC(=O)N(CCCCCCCC)CC(=O)N(CCCOC(=O)CCCCCCC)CC(=O)N(CCSSCC(CC)CCCC)CC(N)=O)C(=O)CNC(CO)CO` (stereo not shown) [Compound 127] (H-[N(CH(CH2OH)2)Gly][N(octyl)Gly][Gly(N-(CH2)3O-octanoyl)][X1][N(octyl)Gly][Gly(N-(CH2)3O-octanoyl)][X1]-NH2), in data set [1], the PDI was 0.093 and the “Particle Size” value is 84.1 nm. For the same molecule, in data set [2], the “mean percent encapsulation of RNA” value is recorded as 84.2%. Also, in data set [3], the “IM Flux” value was found to be 3.36E+08 p/s and the “SC Flux” value stood at 1.92E+08 p/s. Also, the “Total Flux” value in data set [4] was 6.54E+09 p/s.
`CCCCCCCCN(C=O)CC(=O)N(CCCOC(=O)CCCCCCC)CC(=O)N(CCSSCC(CC)CCCC)CC(=O)N(CCCN1CCOCC1)CC(=O)N(CCSSCC(CC)CCCC)CC(=O)N(CCCOC(=O)CCCCCCC)CC(=O)N(CCCCCCCC)CC(N)=O` (stereo not shown) [Compound 132] (For-[N(octyl)Gly][Gly(N-(CH2)3O-octanoyl)][X1][Gly(N-3-morpholinopropyl)][X1][Gly(N-(CH2)3O-octanoyl)][N(octyl)Gly]-NH2): in data set [1], the PDI turned out to be 0.090 and the “Particle Size” value was 86.0 nm. Moreover, in data set [2], the “mean percent encapsulation of RNA” value is on record as 74.2%. For the same molecule, in data set [3], the “IM Flux” value is recorded as 4.62E+08 p/s and the “SC Flux” value was 6.94E+08 p/s. In addition, the “Total Flux” value in data set [4] came to 1.31E+10 p/s.
Regarding `CCCCCCCCCCCCN(CC(=O)N(CC(N)=O)CC(CC)CCCC)C(=O)CN(CC(CC)CCCC)C(=O)CN(CC(CC)CCCC)C(=O)CN(CCCOC(=O)CCCCCCC)C(=O)CN(CC(CC)CCCC)C(=O)CNC(CO)CO` (stereo not shown) [Compound 14] (H-[N(CH(CH2OH)2)Gly][N(2-ethylhexyl)Gly][Gly(N-(CH2)3O-octanoyl)][N(2-ethylhexyl)Gly][N(2-ethylhexyl)Gly][Gly(N-dodecyl)][N(2-ethylhexyl)Gly]-NH2), in data set [1], the PDI is given as 0.090 and the “Particle Size” value stood at 72.1 nm. Also, the “mean percent encapsulation of RNA” value in data set [2] was 90.3%. In addition, in data set [4], the “Total Flux” value amounted to 4.76E+08 p/s.
In the same order, the values of `CCCCCCCCCCCC(=O)OCCN(CC(=O)N(CC(=O)N(CC(=O)N(CCOC(=O)CCCCCCCCCCC)CC(=O)N(CC(N)=O)CC(CC)CCCC)CC(CC)CCCC)CC(CC)CCCC)C(=O)CN(CC(CC)CCCC)C(=O)CNC(CO)CO` (stereo not shown) [Compound 3] (H-[N(CH(CH2OH)2)Gly][N(2-ethylhexyl)Gly][X4][N(2-ethylhexyl)Gly][N(2-ethylhexyl)Gly][X4][N(2-ethylhexyl)Gly]-NH2) are 0.076, 74.6 nm, 63.8% and 6.66E+08 p/s.
`CCCCCCCC(=O)OCCCN(CC(=O)N(CCc1ccccc1)CC(=O)N(CC(=O)N(CCCN1CCOCC1)CC(=O)N(CC(=O)N(CCc1ccccc1)CC(=O)N(CCCOC(=O)CCCCCCC)CC(=O)N(CC(N)=O)CC(CC)CCCC)CC(CC)CCCC)CC(CC)CCCC)C(=O)CN(C=O)CC(CC)CCCC` (stereo not shown) [Compound 124]: in data set [1], the PDI amounted to 0.118 and the “Particle Size” value was 85.2 nm. For the same molecule, the “mean percent encapsulation of RNA” value in data set [2] was found to be 93.5%. In addition, in data set [3], the “IM Flux” value turned out to be 4.35E+07 p/s and the “SC Flux” value turned out to be 4.34E+07 p/s. Further, the “Total Flux” value in data set [4] is 6.20E+08 p/s.
For `CCCCCCCCCC(=O)OCCN(CC(=O)N(CCOC(=O)CCCCCCCCC)CC(=O)N(CCSSCC(CC)CCCC)CC(=O)N(CCOC(=O)CCCCCCCCC)CC(=O)N(CCOC(=O)CCCCCCCCC)CC(=O)N(CCSSCC(CC)CCCC)CC(N)=O)C(=O)CNC(CO)CO` (stereo not shown) [Compound 135] (H-[N(CH(CH2OH)2)Gly][N(2-decanoyloxyethyl)Gly][N(2-decanoyloxyethyl)Gly][X1][N(2-decanoyloxyethyl)Gly][N(2-decanoyloxyethyl)Gly][X1]-NH2), in data set [1], the PDI was found to be 0.158 and the “Particle Size” value is 59.2 nm. Moreover, in data set [2], the “mean percent encapsulation of RNA” value was determined as 91.4%. In data set [3], the “IM Flux” value is listed as 3.49E+08 p/s and the “SC Flux” value came to 5.56E+08 p/s. For the same molecule, the “Total Flux” value in data set [4] is given as 8.92E+08 p/s.
As for `CCCCCCCCCC(=O)OCCCN(C=O)CC(=O)N(CC(=O)N(CCCOC(=O)CCCCCCCCC)CC(=O)N(CCCN1CCOCC1)CC(=O)N(CCCOC(=O)CCCCCCCCC)CC(=O)N(CC(=O)N(CCCOC(=O)CCCCCCCCC)CC(N)=O)CC(CC)CCCC)CC(CC)CCCC` (stereo not shown) [Compound 121] (For-[Gly(N-(3-decanoyloxypropyl))][N(2-ethylhexyl)Gly][Gly(N-(3-decanoyloxypropyl))][Gly(N-3-morpholinopropyl)][Gly(N-(3-decanoyloxypropyl))][N(2-ethylhexyl)Gly][Gly(N-(3-decanoyloxypropyl))]-NH2), in data set [1], the PDI was 0.166 and the “Particle Size” value came out at 82.9 nm. The “mean percent encapsulation of RNA” value in data set [2] is on record as 72.1%. Also, in data set [3], the “IM Flux” value is recorded as 4.54E+07 p/s and the “SC Flux” value stood at 5.20E+07 p/s.
`CCCCCCCCCCSSCCN(CC(=O)N(CC(N)=O)CC(CC)CCCC)C(=O)CN(CC(CC)CCCC)C(=O)CN(CC(CC)CCCC)C(=O)CN(CCCCCCCCCC)C(=O)CN(CC(CC)CCCC)C(=O)CNC(CO)CO` (stereo not shown) [Compound 36] (H-[N(CH(CH2OH)2)Gly][N(2-ethylhexyl)Gly][NDecylGly][N(2-ethylhexyl)Gly][N(2-ethylhexyl)Gly][X7][N(2-ethylhexyl)Gly]-NH2): the “Total Flux” value in data set [4] was determined as 3.51E+09 p/s.
Regarding `CCCCCCCCCCCCN(CC(=O)N(CC(N)=O)CC(CC)CCCC)C(=O)CN(CCCCCCCC)C(=O)CN(CC(CC)CCCC)C(=O)CN(CCCCCCOC(=O)C(CC)CCCC)C(=O)CN(CCCCCCCC)C(=O)CNC(CO)CO` (stereo not shown) [Compound 31] (H-[N(CH(CH2OH)2)Gly][N(octyl)Gly][X5][N(2-ethylhexyl)Gly][N(octyl)Gly][Gly(N-dodecyl)][N(2-ethylhexyl)Gly]-NH2), in data set [1], the PDI turned out to be 0.091 and the “Particle Size” value was determined as 72.9 nm. Besides, the “mean percent encapsulation of RNA” value in data set [2] came out at 91.4%. Further, in data set [4], the “Total Flux” value is on record as 1.11E+09 p/s.
